This note sets out measurements from ChEMBL document CHEMBL4610080, “Natural Products as Sources of New Drugs over the Nearly Four Decades from 01/1981 to 09/2019” (2020).

What all share (assay type): functional
The subject of one experiment is Staphylococcus aureus. Put plainly: Antibacterial activity against Staphylococcus aureus NCTC 8325 assessed as reduction in microbial growth.
The test system of another experiment is Enterococcus. Put plainly: Antibacterial activity against vancomycin-resistant Enterococcus assessed as reduction in microbial growth.
Experiment [1] has as its system Mycobacterium tuberculosis. Description: Antibacterial activity against Mycobacterium tuberculosis assessed as reduction in microbial growth.

For `O=C(Nc1ccc2c(c1)OC(F)(F)O2)Nc1ccc(Cl)c(C(F)(F)F)c1`, the MIC was found to be 0.18 µg/mL in the experiment with Staphylococcus aureus, 1 µg/mL with Enterococcus and 0.93 µg/mL in experiment [1].
Turning to `CC(=O)NC[C@H]1CN(c2ccc(N3CCOCC3)c(F)c2)C(=O)O1` [LINEZOLID], in the experiment on Staphylococcus aureus, the MIC turned out to be 1 µg/mL.
For the compound `CN[C@H](CC(C)C)C(=O)N[C@H]1C(=O)N[C@@H](CC(N)=O)C(=O)N[C@H]2C(=O)N[C@H]3C(=O)N[C@H](C(=O)N[C@H](C(=O)O)c4cc(O)cc(O)c4-c4cc3ccc4O)[C@H](O)c3ccc(c(Cl)c3)Oc3cc2cc(c3O[C@@H]2O[C@H](CO)[C@@H](O)[C@H](O)[C@H]2O[C@H]2C[C@](C)(N)[C@H](O)[C@H](C)O2)Oc2ccc(cc2Cl)[C@H]1O` [VANCOMYCIN], the MIC with Staphylococcus aureus turned out to be 1.4 µg/mL.

For orientation: MIC means the least concentration at which growth counts as inhibited.
